According to PubChem BioAssay AID652018 (The Scripps Research Institute Molecular Screening Center, 2013):
Activity calls are given as the source filed them.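 Rule for the calls: active = at least 50% inhibition of LYPLA1 or LYPLA2 at 300 nM, with no off-target enzyme hit at any dose; inactive = under 50% inhibition on both enzymes, or any off-target hit.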

Molecular target: Acyl-protein thioesterase 1 (Homo sapiens) (UniProt O75608)
Experiment: LYPLA1/LYPLA2 inhibition and anti-target count – cell lysate, competitive ABPP, HEK293T proteome, set 2, selectivity assay for LYPLA1 inhibitor project, late-stage follow-up (AID 652018);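 note: 0% = DMSO-only band intensity and 100% = blank gel background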
Conditions: competitive ABPP FP-PEG-Rh gel, LYPLA1, at 10 µM, stronger effect = higher value

Sequence of Acyl-protein thioesterase 1 (Homo sapiens) (O75608 whole entry, looked up): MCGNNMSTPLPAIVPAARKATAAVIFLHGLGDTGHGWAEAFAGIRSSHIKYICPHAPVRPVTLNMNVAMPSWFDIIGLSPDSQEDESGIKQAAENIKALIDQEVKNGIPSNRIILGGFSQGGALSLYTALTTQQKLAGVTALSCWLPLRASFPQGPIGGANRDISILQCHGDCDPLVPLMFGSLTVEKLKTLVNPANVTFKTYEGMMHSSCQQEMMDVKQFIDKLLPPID

inhibition | Structure (SMILES)
80% (inactive) | O=C(N1CCN(c2ccc(Cl)c(Cl)c2)CC1)n1ncc(C(O)(c2ccccc2)c2ccccc2)n1
95% | COc1ccc(N2CCN(C(=O)n3cc(C(O)(c4ccccc4)c4ccccc4)nn3)CC2)cc1
30% (inactive) | O=C(CN1CCN(C(=O)n2ncc(-c3ccc(-c4ccccc4)cc3)n2)CC1)Nc1cc(C(F)(F)F)ccc1Cl
95% (inactive) | COc1ccc(N2CCN(C(=O)n3nccn3)CC2)cc1
95% (inactive) | O=C(CN1CCN(C(=O)n2nccn2)CC1)Nc1cc(C(F)(F)F)ccc1Cl
95% (inactive) | O=C(CN1CCN(C(=O)n2nc(Br)nc2Br)CC1)Nc1cc(C(F)(F)F)ccc1Cl
80% (inactive) | COc1ccc(N2CCN(C(=O)n3cc(-c4ccc(OC(F)(F)F)cc4)nn3)CC2)cc1
90% (inactive) | COc1ccc(N2CCN(C(=O)n3ccnn3)CC2)cc1
95% | COc1ccc(N2CCN(C(=O)n3ncc(C(O)(c4ccccc4)c4ccccc4)n3)CC2)cc1
100% (inactive) | O=C(N1CCN(c2ccc(Br)cc2)CC1)n1ncc(C(O)(c2ccccc2)c2ccccc2)n1
30% (inactive) | O=C(CN1CCN(C(=O)n2cncn2)CC1)Nc1cc(C(F)(F)F)ccc1Cl
30% (inactive) | O=C(CN1CCN(C(=O)n2cc(-c3ccc(-c4ccccc4)cc3)nn2)CC1)Nc1cc(C(F)(F)F)ccc1Cl
95% | O=C(CN1CCN(C(=O)n2cc(C(O)(c3ccccc3)c3ccccc3)nn2)CC1)Nc1cc(C(F)(F)F)ccc1Cl
95% | O=C(CN1CCN(C(=O)n2ncc(C(O)(c3ccccc3)c3ccccc3)n2)CC1)Nc1cc(C(F)(F)F)ccc1Cl
95% (inactive) | COc1ccc(N2CCN(C(=O)n3cncn3)CC2)cc1
20% (inactive) | COc1ccc(N2CCN(C(=O)n3ncc(-c4ccc(OC(F)(F)F)cc4)n3)CC2)cc1
95% (inactive) | COc1ccc(N2CCN(C(=O)n3nc(Br)nc3Br)CC2)cc1
95% | COc1ccc(N2CCN(C(=O)n3nc(Br)c(Br)n3)CC2)cc1
30% (inactive) | COc1ccc(N2CCN(C(=O)n3ncc(-c4ccccc4)n3)CC2)cc1
60% (inactive) | O=C(CN1CCN(C(=O)n2cc(-c3ccc(OC(F)(F)F)cc3)nn2)CC1)Nc1cc(C(F)(F)F)ccc1Cl
80% | O=C(CN1CCN(C(=O)n2ncc(-c3ccc(Br)cc3)n2)CC1)Nc1cc(C(F)(F)F)ccc1Cl
95% | O=C(CN1CCN(C(=O)n2nc(Br)c(Br)n2)CC1)Nc1cc(C(F)(F)F)ccc1Cl
90% (inactive) | O=C(CN1CCN(C(=O)n2ncc(-c3ccc(OC(F)(F)F)cc3)n2)CC1)Nc1cc(C(F)(F)F)ccc1Cl

Same assay, conditions: competitive ABPP FP-PEG-Rh gel, LYPLA1, inhibition, at 0.3 µM, stronger effect = higher value

inhibition [%] | Structure (SMILES)
30 | O=C(N1CCN(c2ccc(Cl)c(Cl)c2)CC1)n1ncc(C(O)(c2ccccc2)c2ccccc2)n1
85 | COc1ccc(N2CCN(C(=O)n3cc(C(O)(c4ccccc4)c4ccccc4)nn3)CC2)cc1
30 | O=C(CN1CCN(C(=O)n2ncc(-c3ccc(-c4ccccc4)cc3)n2)CC1)Nc1cc(C(F)(F)F)ccc1Cl
20 | COc1ccc(N2CCN(C(=O)n3nccn3)CC2)cc1
30 | O=C(CN1CCN(C(=O)n2nccn2)CC1)Nc1cc(C(F)(F)F)ccc1Cl
45 | O=C(CN1CCN(C(=O)n2nc(Br)nc2Br)CC1)Nc1cc(C(F)(F)F)ccc1Cl
20 | COc1ccc(N2CCN(C(=O)n3cc(-c4ccc(OC(F)(F)F)cc4)nn3)CC2)cc1
20 | COc1ccc(N2CCN(C(=O)n3ccnn3)CC2)cc1
95 | COc1ccc(N2CCN(C(=O)n3ncc(C(O)(c4ccccc4)c4ccccc4)n3)CC2)cc1
40 | O=C(N1CCN(c2ccc(Br)cc2)CC1)n1ncc(C(O)(c2ccccc2)c2ccccc2)n1
30 | O=C(CN1CCN(C(=O)n2cncn2)CC1)Nc1cc(C(F)(F)F)ccc1Cl
30 | O=C(CN1CCN(C(=O)n2cc(-c3ccc(-c4ccccc4)cc3)nn2)CC1)Nc1cc(C(F)(F)F)ccc1Cl
80 | O=C(CN1CCN(C(=O)n2cc(C(O)(c3ccccc3)c3ccccc3)nn2)CC1)Nc1cc(C(F)(F)F)ccc1Cl
95 | O=C(CN1CCN(C(=O)n2ncc(C(O)(c3ccccc3)c3ccccc3)n2)CC1)Nc1cc(C(F)(F)F)ccc1Cl
20 | COc1ccc(N2CCN(C(=O)n3cncn3)CC2)cc1
10 | COc1ccc(N2CCN(C(=O)n3ncc(-c4ccc(OC(F)(F)F)cc4)n3)CC2)cc1
20 | COc1ccc(N2CCN(C(=O)n3nc(Br)nc3Br)CC2)cc1
85 | COc1ccc(N2CCN(C(=O)n3nc(Br)c(Br)n3)CC2)cc1
20 | COc1ccc(N2CCN(C(=O)n3ncc(-c4ccccc4)n3)CC2)cc1
30 | O=C(CN1CCN(C(=O)n2cc(-c3ccc(OC(F)(F)F)cc3)nn2)CC1)Nc1cc(C(F)(F)F)ccc1Cl
70 | O=C(CN1CCN(C(=O)n2ncc(-c3ccc(Br)cc3)n2)CC1)Nc1cc(C(F)(F)F)ccc1Cl
90 | O=C(CN1CCN(C(=O)n2nc(Br)c(Br)n2)CC1)Nc1cc(C(F)(F)F)ccc1Cl
30 | O=C(CN1CCN(C(=O)n2ncc(-c3ccc(OC(F)(F)F)cc3)n2)CC1)Nc1cc(C(F)(F)F)ccc1Cl

Same assay, conditions: competitive ABPP FP-PEG-Rh gel, LYPLA1, inhibition, at 1 µM, stronger effect = higher value

inhibition [%] | Structure (SMILES)
40 | O=C(N1CCN(c2ccc(Cl)c(Cl)c2)CC1)n1ncc(C(O)(c2ccccc2)c2ccccc2)n1
95 | COc1ccc(N2CCN(C(=O)n3cc(C(O)(c4ccccc4)c4ccccc4)nn3)CC2)cc1
30 | O=C(CN1CCN(C(=O)n2ncc(-c3ccc(-c4ccccc4)cc3)n2)CC1)Nc1cc(C(F)(F)F)ccc1Cl
80 | COc1ccc(N2CCN(C(=O)n3nccn3)CC2)cc1
60 | O=C(CN1CCN(C(=O)n2nccn2)CC1)Nc1cc(C(F)(F)F)ccc1Cl
85 | O=C(CN1CCN(C(=O)n2nc(Br)nc2Br)CC1)Nc1cc(C(F)(F)F)ccc1Cl
20 | COc1ccc(N2CCN(C(=O)n3cc(-c4ccc(OC(F)(F)F)cc4)nn3)CC2)cc1
50 | COc1ccc(N2CCN(C(=O)n3ccnn3)CC2)cc1
95 | COc1ccc(N2CCN(C(=O)n3ncc(C(O)(c4ccccc4)c4ccccc4)n3)CC2)cc1
90 | O=C(N1CCN(c2ccc(Br)cc2)CC1)n1ncc(C(O)(c2ccccc2)c2ccccc2)n1
30 | O=C(CN1CCN(C(=O)n2cncn2)CC1)Nc1cc(C(F)(F)F)ccc1Cl
30 | O=C(CN1CCN(C(=O)n2cc(-c3ccc(-c4ccccc4)cc3)nn2)CC1)Nc1cc(C(F)(F)F)ccc1Cl
90 | O=C(CN1CCN(C(=O)n2cc(C(O)(c3ccccc3)c3ccccc3)nn2)CC1)Nc1cc(C(F)(F)F)ccc1Cl
95 | O=C(CN1CCN(C(=O)n2ncc(C(O)(c3ccccc3)c3ccccc3)n2)CC1)Nc1cc(C(F)(F)F)ccc1Cl
75 | COc1ccc(N2CCN(C(=O)n3cncn3)CC2)cc1
10 | COc1ccc(N2CCN(C(=O)n3ncc(-c4ccc(OC(F)(F)F)cc4)n3)CC2)cc1
60 | COc1ccc(N2CCN(C(=O)n3nc(Br)nc3Br)CC2)cc1
95 | COc1ccc(N2CCN(C(=O)n3nc(Br)c(Br)n3)CC2)cc1
30 | COc1ccc(N2CCN(C(=O)n3ncc(-c4ccccc4)n3)CC2)cc1
30 | O=C(CN1CCN(C(=O)n2cc(-c3ccc(OC(F)(F)F)cc3)nn2)CC1)Nc1cc(C(F)(F)F)ccc1Cl
70 | O=C(CN1CCN(C(=O)n2ncc(-c3ccc(Br)cc3)n2)CC1)Nc1cc(C(F)(F)F)ccc1Cl
90 | O=C(CN1CCN(C(=O)n2nc(Br)c(Br)n2)CC1)Nc1cc(C(F)(F)F)ccc1Cl
30 | O=C(CN1CCN(C(=O)n2ncc(-c3ccc(OC(F)(F)F)cc3)n2)CC1)Nc1cc(C(F)(F)F)ccc1Cl
